Assay results published in patent US20140213513A1 (Sanofi, priority 2012, published 2014).
*1 amine or outer side, *2 acyl side, *3 side chain or, on linkers, in order; H or OH if unused. Where a SMILES comes first, the peptide text is derived from it. Side-chain parts run from the residue outwards. [ ]: non-standard residue; d: D form. The star is where a group is joined. γGlu = O=C(O)[C@H](CCC(=O)[*:2])N[*:1]; Stearoyl = CCCCCCCCCCCCCCCCCC(=O)*; Palmitoyl = CCCCCCCCCCCCCCCC(=O)*; Aib = CC(C)(N)C(=O)O

Legend:
Assay type in all cases: cell-based
Details in all cases: Table 7; cAMP formation
[1] = target: T1, human GLP-1 receptor (hGLP-1 R) (Homo sapiens, UniProt P43220); assay: cAMP response of HEK-293 cells stably expressing human GLP-1 receptor (HTRF)
T1 construct: expressed in transfected cells
T1 sequence (P43220 24-463): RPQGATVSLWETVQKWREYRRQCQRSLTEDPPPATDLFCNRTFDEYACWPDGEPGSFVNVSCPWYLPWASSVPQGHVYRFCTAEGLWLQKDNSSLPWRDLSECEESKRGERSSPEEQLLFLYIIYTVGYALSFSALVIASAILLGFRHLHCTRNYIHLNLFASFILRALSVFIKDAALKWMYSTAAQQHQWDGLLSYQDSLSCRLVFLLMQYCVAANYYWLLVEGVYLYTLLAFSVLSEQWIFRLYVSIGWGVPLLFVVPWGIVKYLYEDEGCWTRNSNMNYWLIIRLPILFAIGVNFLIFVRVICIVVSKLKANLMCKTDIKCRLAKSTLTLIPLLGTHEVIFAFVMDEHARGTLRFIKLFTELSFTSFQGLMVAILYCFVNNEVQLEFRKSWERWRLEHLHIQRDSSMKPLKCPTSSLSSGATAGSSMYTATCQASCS
Method in brief: (§1)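 Stably transfected HEK-293 cells, accutase-harvested; assay buffer 1×HBSS/20 mM HEPES/0.1% BSA/2 mM IBMX; 400000 cells/ml; compound 30 min, RT; cAMP by HTRF kit.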

[2] = target: T2, human GIP receptor (hGIP R) (Homo sapiens, UniProt P48546); assay: cAMP response of HEK-293 cells stably expressing human GIP receptor (HTRF)
T2 construct: expressed in transfected cells
T2 sequence (P48546 22-466): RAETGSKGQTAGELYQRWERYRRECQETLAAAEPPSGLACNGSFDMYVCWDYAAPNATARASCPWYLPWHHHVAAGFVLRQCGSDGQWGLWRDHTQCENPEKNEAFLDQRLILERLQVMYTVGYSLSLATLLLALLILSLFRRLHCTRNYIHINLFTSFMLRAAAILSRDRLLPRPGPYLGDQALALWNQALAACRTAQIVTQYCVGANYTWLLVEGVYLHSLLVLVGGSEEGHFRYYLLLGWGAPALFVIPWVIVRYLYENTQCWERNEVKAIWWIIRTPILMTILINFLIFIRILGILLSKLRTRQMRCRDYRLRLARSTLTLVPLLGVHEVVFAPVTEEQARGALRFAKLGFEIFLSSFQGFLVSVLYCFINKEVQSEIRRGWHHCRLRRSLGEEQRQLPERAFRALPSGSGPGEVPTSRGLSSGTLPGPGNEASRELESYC
Method in brief: as §1

[3] = target: T3, human glucagon receptor (hGLUC R) (Homo sapiens, UniProt P47871); assay: cAMP response of HEK-293 cells stably expressing human glucagon receptor (HTRF)
T3 construct: expressed in transfected cells
T3 sequence (P47871 26-477): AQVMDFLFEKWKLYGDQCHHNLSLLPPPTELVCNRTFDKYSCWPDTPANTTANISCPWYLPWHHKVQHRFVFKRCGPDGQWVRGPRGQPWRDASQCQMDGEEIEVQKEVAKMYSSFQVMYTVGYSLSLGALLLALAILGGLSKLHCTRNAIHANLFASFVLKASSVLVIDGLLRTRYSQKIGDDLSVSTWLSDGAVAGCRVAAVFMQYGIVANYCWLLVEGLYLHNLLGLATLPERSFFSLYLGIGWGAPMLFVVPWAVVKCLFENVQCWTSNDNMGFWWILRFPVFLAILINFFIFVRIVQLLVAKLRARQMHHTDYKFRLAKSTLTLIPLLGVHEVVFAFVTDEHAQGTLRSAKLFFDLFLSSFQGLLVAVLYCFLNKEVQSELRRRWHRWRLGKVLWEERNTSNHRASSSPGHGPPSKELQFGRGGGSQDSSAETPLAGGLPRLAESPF
Method in brief: as §1

| Structure (SMILES) | EC50 [1] [nM] | EC50 [2] [nM] | EC50 [3] [nM] |
| --- | --- | --- | --- |
| CCCCCCCCCCCCCCCC(=O)N[C@@H](CCC(=O)NCCCC[C@H](NC(=O)[C@H](CCC(N)=O)NC(=O)[C@@H](NC(=O)[C@H](CO)NC(=O)[C@H](CC(C)C)NC(=O)[C@H](CC(=O)O)NC(=O)[C@H](CO)NC(=O)[C@@H](NC(=O)[C@H](Cc1ccccc1)NC(=O)[C@@H](NC(=O)CNC(=O)[C@H](CCC(N)=O)NC(=O)C(C)(C)NC(=O)[C@@H](N)Cc1ccc(O)cc1)[C@@H](C)O)[C@@H](C)O)[C@@H](C)CC)C(=O)N[C@@H](CCC(=O)O)C(=O)N[C@@H](CCC(N)=O)C(=O)N[C@@H](CCCNC(=N)N)C(=O)N[C@@H](C)C(=O)N[C@@H](C)C(=O)NC(C)(C)C(=O)N[C@@H](CCC(=O)O)C(=O)N[C@@H](Cc1ccccc1)C(=O)N[C@H](C(=O)N[C@@H](CCC(=O)O)C(=O)N[C@@H](Cc1c[nH]c2ccccc12)C(=O)N[C@@H](CC(C)C)C(=O)N[C@@H](CCCCN)C(=O)N[C@@H](CC(N)=O)C(=O)N[C@H](C(=O)NCC(=O)N1CCC[C@H]1C(=O)N[C@@H](CO)C(=O)N[C@@H](CO)C(=O)NCC(=O)N[C@@H](C)C(=O)N1CCC[C@H]1C(=O)N1CCC[C@H]1C(=O)N1CCC[C@H]1C(=O)N[C@@H](CO)C(N)=O)[C@@H](C)O)[C@@H](C)CC)C(=O)O [SEQ ID NO: 15, Y-Aib-Q-G-T-F-T-S-D-L-S-I-Q-K(yE-x53)-E-Q- R-A-A-Aib-E-F-I-E-W-L-K-N-T-G-P-S-S-G-A-P-P-P-S-NH2] (H-Y[Aib]QGTFTSDLSIQK([γGlu-Palmitoyl])EQRAA[Aib]EFIEWLKNTGPSSGAPPPS-NH2) | 0.0069 | 0.0114 | 0.054 |
| CCCCCCCCCCCCCCCC(=O)N[C@@H](CCC(=O)NCCCC[C@H](NC(=O)[C@H](CCC(N)=O)NC(=O)[C@H](CCCCN)NC(=O)[C@H](CO)NC(=O)[C@H](CC(C)C)NC(=O)[C@H](CC(=O)O)NC(=O)[C@H](CO)NC(=O)[C@@H](NC(=O)[C@H](Cc1ccccc1)NC(=O)[C@@H](NC(=O)CNC(=O)[C@H](CCC(=O)O)NC(=O)C(C)(C)NC(=O)[C@@H](N)Cc1ccc(O)cc1)[C@@H](C)O)[C@@H](C)O)C(=O)N[C@@H](CC(=O)O)C(=O)N[C@@H](CCCCN)C(=O)N[C@@H](CCCNC(=N)N)C(=O)N[C@@H](C)C(=O)N[C@@H](C)C(=O)N[C@@H](CCC(N)=O)C(=O)N[C@@H](CC(=O)O)C(=O)N[C@@H](Cc1ccccc1)C(=O)N[C@H](C(=O)N[C@@H](CCC(=O)O)C(=O)N[C@@H](Cc1c[nH]c2ccccc12)C(=O)N[C@@H](CC(C)C)C(=O)N[C@@H](CCCCN)C(=O)N[C@@H](CC(N)=O)C(=O)NCC(=O)NCC(=O)N1CCC[C@H]1C(=O)N[C@@H](CO)C(=O)N[C@@H](CO)C(=O)NCC(=O)N[C@@H](C)C(=O)N1CCC[C@H]1C(=O)N1CCC[C@H]1C(=O)N1CCC[C@H]1C(=O)N[C@@H](CO)C(N)=O)[C@@H](C)CC)C(=O)O [SEQ ID NO: 30, Y-Aib-E-G-T-F-T-S-D-L-S-K-Q-K(yE-x53)-DKRAAQDFIEWLKNGGPSSGAPPPS-NH2] (H-Y[Aib]EGTFTSDLSKQK([γGlu-Palmitoyl])DKRAAQDFIEWLKNGGPSSGAPPPS-NH2) | 0.005 | 0.0163 | 1.45 |
| CCCCCCCCCCCCCCCC(=O)N[C@@H](CCC(=O)NCCCC[C@H](NC(=O)[C@H](CCC(N)=O)NC(=O)[C@@H](NC(=O)[C@H](CO)NC(=O)[C@H](CC(C)C)NC(=O)[C@H](CC(=O)O)NC(=O)[C@H](CO)NC(=O)[C@@H](NC(=O)[C@H](Cc1ccccc1)NC(=O)[C@@H](NC(=O)CNC(=O)[C@H](CCC(N)=O)NC(=O)C(C)(C)NC(=O)[C@@H](N)Cc1ccc(O)cc1)[C@@H](C)O)[C@@H](C)O)[C@@H](C)CC)C(=O)N[C@@H](CC(=O)O)C(=O)N[C@@H](CCCCN)C(=O)N[C@@H](CCCNC(=N)N)C(=O)N[C@@H](C)C(=O)N[C@@H](C)C(=O)N[C@@H](CCC(N)=O)C(=O)N[C@@H](CC(=O)O)C(=O)N[C@@H](Cc1ccccc1)C(=O)N[C@H](C(=O)N[C@@H](CCC(=O)O)C(=O)N[C@@H](Cc1c[nH]c2ccccc12)C(=O)N[C@@H](CC(C)C)C(=O)N[C@@H](CCCCN)C(=O)N[C@@H](CCCCN)C(=O)NCC(=O)NCC(=O)N1CCC[C@H]1C(=O)N[C@@H](CO)C(=O)N[C@@H](CO)C(=O)NCC(=O)N[C@@H](C)C(=O)N1CCC[C@H]1C(=O)N1CCC[C@H]1C(=O)N1CCC[C@H]1C(=O)N[C@@H](CO)C(N)=O)[C@@H](C)CC)C(=O)O [SEQ ID NO: 44, Y-Aib-Q-G-T-F-T-S-D-L-S-I-Q-K(yE-x53)-DKRAAQDFIEWLKKGGPSSGAPPPS-NH2] (H-Y[Aib]QGTFTSDLSIQK([γGlu-Palmitoyl])DKRAAQDFIEWLKKGGPSSGAPPPS-NH2) | 0.0097 | 0.0255 | 0.0552 |
| CCCCCCCCCCCCCCCCCC(=O)N[C@@H](CCC(=O)NCCCC[C@H](NC(=O)[C@H](CCC(N)=O)NC(=O)[C@@H](NC(=O)[C@H](CO)NC(=O)[C@H](CC(C)C)NC(=O)[C@H](CC(=O)O)NC(=O)[C@H](CO)NC(=O)[C@@H](NC(=O)[C@H](Cc1ccccc1)NC(=O)[C@@H](NC(=O)CNC(=O)[C@H](CCC(=O)O)NC(=O)C(C)(C)NC(=O)[C@@H](N)Cc1ccc(O)cc1)[C@@H](C)O)[C@@H](C)O)[C@@H](C)CC)C(=O)N[C@@H](CCC(=O)O)C(=O)N[C@@H](CCC(=O)O)C(=O)N[C@@H](CCC(=O)O)C(=O)N[C@@H](C)C(=O)N[C@H](C(=O)N[C@@H](CCCCN)C(=O)N[C@@H](CC(C)C)C(=O)N[C@@H](Cc1ccccc1)C(=O)N[C@H](C(=O)N[C@@H](CCC(=O)O)C(=O)N[C@@H](Cc1c[nH]c2ccccc12)C(=O)N[C@@H](CC(C)C)C(=O)N[C@@H](CCCCN)C(=O)N[C@@H](C)C(=O)NCC(=O)NCC(=O)N1CCC[C@H]1C(=O)N[C@@H](CO)C(=O)N[C@@H](CO)C(=O)NCC(=O)N[C@@H](C)C(=O)N1CCC[C@H]1C(=O)N1CCC[C@H]1C(=O)N1CCC[C@H]1C(=O)N[C@@H](CO)C(N)=O)[C@@H](C)CC)C(C)C)C(=O)O [SEQ ID NO: 62, Y-Aib-E-G-T-F-T-S-D-L-S-I-Q-K(yE-x70)-EEEAVKLFIEWLKAGGPSSGAPPPS-NH2] (H-Y[Aib]EGTFTSDLSIQK([γGlu-Stearoyl])EEEAVKLFIEWLKAGGPSSGAPPPS-NH2) | 0.0076 | 0.0067 | > 1000 |
| CCCCCCCCCCCCCCCC(=O)NCCCC[C@H](NC(=O)[C@H](CCC(N)=O)NC(=O)[C@@H](NC(=O)[C@H](CO)NC(=O)[C@H](CC(C)C)NC(=O)[C@H](CC(=O)O)NC(=O)[C@H](CO)NC(=O)[C@@H](NC(=O)[C@H](Cc1ccccc1)NC(=O)[C@@H](NC(=O)CNC(=O)[C@H](CCC(N)=O)NC(=O)C(C)(C)NC(=O)[C@@H](N)Cc1ccc(O)cc1)[C@@H](C)O)[C@@H](C)O)[C@@H](C)CC)C(=O)N[C@@H](CCC(=O)O)C(=O)N[C@@H](CCCCN)C(=O)N[C@@H](CCCNC(=N)N)C(=O)N[C@@H](C)C(=O)N[C@H](C(=O)NC(C)(C)C(=O)N[C@@H](CC(C)C)C(=O)N[C@@H](Cc1ccccc1)C(=O)N[C@H](C(=O)N[C@@H](CCC(=O)O)C(=O)N[C@@H](Cc1c[nH]c2ccccc12)C(=O)N[C@@H](CC(C)C)C(=O)N[C@@H](CCCCN)C(=O)N[C@@H](C)C(=O)NCC(=O)NCC(=O)N1CCC[C@H]1C(=O)N[C@@H](CO)C(=O)N[C@@H](CO)C(=O)NCC(=O)N[C@@H](C)C(=O)N1CCC[C@H]1C(=O)N1CCC[C@H]1C(=O)N1CCC[C@H]1C(=O)N[C@@H](CO)C(N)=O)[C@@H](C)CC)C(C)C [SEQ ID NO: 25, Y-Aib-Q-G-T-F-T-S-D-L-S-I-Q-K(x53)-E-K-R-A-V-Aib-L-F-I-E-W-L-K-A-G-G-P-S-S-G-A-P-P-P-S-NH2] (H-Y[Aib]QGTFTSDLSIQK(Palmitoyl)EKRAV[Aib]LFIEWLKAGGPSSGAPPPS-NH2) | 0.037 | 0.176 | 2.03 |
